One assay has as its target BTK^WT (Homo sapiens (Human), UniProt Q06187). Briefly: BTK^WT binding affinity (TR-FRET, LanthaScreen). How it is done:
BTK^WT binding affinity of each compound tested was determined using a time-resolved fluorescence resonance energy transfer (TR-FRET) methodology. 2.5 nM Recombinant BTK^WT kinase, varying concentrations of inhibitor, 2 nM LanthaScreen™ Eu anti-His Antibody and 15 nM Kinase Tracer 236 was incubated in 1× LanthaScreen™ Kinase Buffer A for 5 h. Recombinant BTK kinase and all LanthaScreen™ components were purchased from Invitrogen. Measurements were performed in a reaction volume of 30 μL using half-area 96-well assay plates. The TR-FRET signal was read on a plate reader with an excitation wavelength of 340 nm and detection wavelengths of 615 and 665 nm. Binding affinity was determined for each compound by measuring TR-FRET signal at various concentrations of compound and plotting the relative fluorescence units against the inhibitor concentration to estimate the IC50 from log [Inhibitor] vs response using the Variable Slope model in Graphpad prism from Graphpad software (SanDiego, Calif.).
(TR-FRET usually uses a lanthanide donor and a delayed reading to cut background.)

Another assay addresses BTK^C481S (Homo sapiens (Human), UniProt Q06187, C481S). As to the kind of experiment: BTK^C481S binding affinity (TR-FRET, LanthaScreen). The conditions noted are these: 5 h incubation. How it is done:
BTK^C481S binding affinity of each compound tested was determined using a time-resolved fluorescence resonance energy transfer (TR-FRET) methodology. 5 nM Recombinant […] kinase, varying concentrations of inhibitor, 2 nM LanthaScreen™ Eu anti-His Antibody and 30 nM Kinase Tracer 236 was incubated in 1× LanthaScreen™ Kinase Buffer A for 5 h. Recombinant BTK^C481S kinase was purchased from SignalChem and all LanthaScreen™ components were purchased from Invitrogen. Measurements were performed in a reaction volume of 30 μL using half-area 96-well assay plates. The TR-FRET signal was read on a plate reader with an excitation wavelength of 340 nm and detection wavelengths of 615 and 665 nm. Binding affinity was determined for each compound by measuring TR-FRET signal at various concentrations of compound and plotting the relative fluorescence units against the inhibitor concentration to estimate the IC50 from log [Inhibitor] vs response using the Variable Slope model in Graphpad prism from Graphpad software (SanDiego, Calif.).

The target of another assay is EGFR (Homo sapiens (Human), UniProt P00533). Briefly: EGFR binding affinity (TR-FRET, LanthaScreen). The conditions noted are these: 5 h incubation. How it is done: EGFR binding affinity was determined using a time-resolved fluorescence resonance energy transfer (TR-FRET) methodology. 2.5 nM Recombinant EGFR, varying concentrations of inhibitor, 2 nM LanthaScreen™ Eu anti-GST Antibody and 3 nM Kinase Tracer 199 was incubated in 1× LanthaScreen™ Kinase Buffer A for 5 h. Recombinant EGFR and all LanthaScreen™ components were purchased from Invitrogen. Measurements were performed in a reaction volume of 30 μL using half-area 96-well assay plates. The TR-FRET signal was read on a plate reader with an excitation wavelength of 340 nm and detection wavelengths of 615 and 665 nm. Binding affinity was determined for each compound by measuring TR-FRET signal at various concentrations of compound and plotting the relative fluorescence units against the inhibitor concentration to estimate the IC50 from log [Inhibitor] vs response using the Variable Slope model in Graphpad prism from Graphpad software (SanDiego, Calif.).

In assay [1] the test system is OCI-Ly10 human DLBCL cells. Briefly: OCI-Ly10 anti-proliferative activity (Resazurin, 72 h). The settings on record: read-out: Proliferation OCI-Ly10-IC50. Format: cell-based. How it is done: Compounds were assayed for effects on the growth of OCI-Ly10 human DLBCL cells that are dependent on NFκB signalling. OCI-Ly10 cells were grown in suspension in T225 flasks, centrifuged and re-suspended in 2.5% FBS containing media. Cells were then plated at 7.5×10^3 cells per well in 96-well plates in varying concentrations of compound and incubated for 72 h at 37° C. An additional plate of cells to be used as the Day 0 read was seeded without compound addition, Resazurin was added to each well, incubated for 5 h and the fluorescence measured at 590 nm. After 72 h of compound treatment, Resazurin was added to each well of the compound treated plates, incubated for 5 h and the fluorescence measured at 590 nm. The IC50 was then calculated by subtracting the average Day 0 value from each well value from the treated plates, each treatment was then calculated as a percentage of the DMSO control and the percentages plotted against the inhibitor concentration to estimate the IC50 from log [Inhibitor] vs response using the Variable Slope model in Graphpad prism from Graphpad software (SanDiego, Calif.).
(In general: Resazurin is reduced to fluorescent resorufin, in cell work by metabolically active cells.)

[2] abbreviates: TR-FRET binding, 5 h incubation, read-out: BTK^WT IC50.
Where [3] appears, read: Table 6, numeric values, read-out: BTK Binding IC50.

The record followed here is patent US10399989B2, “Pyrazolopyrimidine derivatives as BTK inhibitors for the treatment of cancer” (Loxo Oncology, Inc., priority 2016, dated 2019).

Like-named read-outs stand apart in the source and are kept apart here. A value given as a limit tells only on which side of the number the result lay.

Sequence of BTK^WT (Q06187 whole entry): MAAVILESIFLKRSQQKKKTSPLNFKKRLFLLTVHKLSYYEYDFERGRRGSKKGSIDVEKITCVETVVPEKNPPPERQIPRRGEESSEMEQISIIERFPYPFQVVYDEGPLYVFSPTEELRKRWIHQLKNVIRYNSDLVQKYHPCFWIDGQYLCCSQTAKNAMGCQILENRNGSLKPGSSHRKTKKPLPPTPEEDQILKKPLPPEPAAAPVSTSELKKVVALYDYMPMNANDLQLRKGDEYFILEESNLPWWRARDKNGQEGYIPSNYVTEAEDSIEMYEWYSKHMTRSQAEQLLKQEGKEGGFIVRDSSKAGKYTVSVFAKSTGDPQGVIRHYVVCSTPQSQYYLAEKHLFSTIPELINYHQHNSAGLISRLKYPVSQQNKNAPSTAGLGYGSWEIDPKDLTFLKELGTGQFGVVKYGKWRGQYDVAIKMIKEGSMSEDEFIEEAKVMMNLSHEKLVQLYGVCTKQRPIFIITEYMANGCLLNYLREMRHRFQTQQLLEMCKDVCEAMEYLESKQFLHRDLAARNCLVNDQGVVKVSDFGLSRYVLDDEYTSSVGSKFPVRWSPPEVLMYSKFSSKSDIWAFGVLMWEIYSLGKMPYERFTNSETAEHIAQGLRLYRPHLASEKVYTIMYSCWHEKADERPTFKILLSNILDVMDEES
Sequence of BTK^C481S (Q06187 whole entry C481S): as the sequence (Q06187 whole entry) above, with C481S counted along it
Sequence of EGFR (P00533 25-1210): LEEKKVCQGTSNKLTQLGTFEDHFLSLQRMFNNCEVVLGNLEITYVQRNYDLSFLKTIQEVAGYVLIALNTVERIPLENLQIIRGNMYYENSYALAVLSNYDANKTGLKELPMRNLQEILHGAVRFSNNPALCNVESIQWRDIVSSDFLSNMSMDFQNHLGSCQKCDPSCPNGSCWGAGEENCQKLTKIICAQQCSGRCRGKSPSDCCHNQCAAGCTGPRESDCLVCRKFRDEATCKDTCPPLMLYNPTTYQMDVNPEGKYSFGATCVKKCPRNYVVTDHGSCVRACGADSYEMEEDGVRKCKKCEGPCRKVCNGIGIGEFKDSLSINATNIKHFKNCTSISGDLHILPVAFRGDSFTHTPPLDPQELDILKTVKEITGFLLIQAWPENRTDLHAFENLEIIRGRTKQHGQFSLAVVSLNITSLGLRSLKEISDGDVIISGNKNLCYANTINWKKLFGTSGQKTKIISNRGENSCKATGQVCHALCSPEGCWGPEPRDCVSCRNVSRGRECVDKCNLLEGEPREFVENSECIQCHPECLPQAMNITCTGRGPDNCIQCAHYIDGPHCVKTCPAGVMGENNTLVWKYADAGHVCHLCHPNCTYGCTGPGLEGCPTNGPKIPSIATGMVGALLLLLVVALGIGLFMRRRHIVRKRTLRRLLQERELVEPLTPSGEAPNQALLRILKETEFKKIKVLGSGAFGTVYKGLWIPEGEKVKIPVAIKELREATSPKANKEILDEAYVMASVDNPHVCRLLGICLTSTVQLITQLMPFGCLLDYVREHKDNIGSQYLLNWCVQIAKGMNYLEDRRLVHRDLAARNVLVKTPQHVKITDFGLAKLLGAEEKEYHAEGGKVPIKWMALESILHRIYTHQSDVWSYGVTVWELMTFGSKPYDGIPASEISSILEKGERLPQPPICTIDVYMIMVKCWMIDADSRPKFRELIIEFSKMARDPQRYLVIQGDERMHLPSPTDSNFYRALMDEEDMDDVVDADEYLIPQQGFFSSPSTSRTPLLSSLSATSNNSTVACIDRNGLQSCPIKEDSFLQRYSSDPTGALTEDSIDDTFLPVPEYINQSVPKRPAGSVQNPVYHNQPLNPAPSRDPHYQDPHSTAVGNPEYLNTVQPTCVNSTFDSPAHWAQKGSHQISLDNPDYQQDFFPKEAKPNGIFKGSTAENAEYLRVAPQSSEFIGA

Take `COc1ccccc1C(=O)NCc1ccc(-c2nn([C@@H]3CC[C@H](O)C3)c3ncnc(N)c23)cc1` (relative stereo) [Example 24, N-[[4-[4-amino-1-[(1R*,3S*)-3-hydroxycyclopentyl]pyrazolo[3,4-d]pyrimidin-3-yl]phenyl]methyl]-2-methoxy-benzamide]: the IC50 was at most 10 nM at BTK^WT (setting [2]); 2.2 nM at BTK^WT (setting [3]); at most 10 nM at BTK^C481S; 100 to 1000 nM on EGFR; 10 to 100 nM in assay [1] (Homo sapiens, OCI-Ly10, 72 h).

`COc1ccccc1C(=O)NCc1ccc(-c2nn(C3CCC(O)CC3)c3ncnc(N)c23)cc1` (single isomer, unassigned) [Example 23-isomer1, N-[[4-[4-amino-1-(4-hydroxycyclohexyl)pyrazolo[3,4-d]pyrimidin-3-yl]phenyl]methyl]-2-methoxy-benzamide]: the IC50 is at most 10 nM at BTK^WT (setting [2]), at most 10 nM on BTK^C481S, 100 to 1000 nM at EGFR and 100 to 1000 nM in assay [1].

Turning to `COc1ccccc1C(=O)NCc1ccc(-c2nn(C3CCC(O)CC3)c3ncnc(N)c23)cc1` (single isomer, unassigned) [Example 23-isomer2, N-[[4-[4-amino-1-(4-hydroxycyclohexyl)pyrazolo[3,4-d]pyrimidin-3-yl]phenyl]methyl]-2-methoxy-benzamide], the IC50 was at most 10 nM at BTK^WT (setting [2]); 0.4 nM at BTK^WT (setting [3]); at most 10 nM at BTK^C481S; 100 to 1000 nM on EGFR; 10 to 100 nM in assay [1].

Turning to `COc1ccccc1C(=O)NCc1ccc(-c2nn(C3CCC(C)(O)CC3)c3ncnc(N)c23)cc1` (single isomer, unassigned) [Example 91, N-[[4-[4-amino-1-(4-hydroxy-4-methyl-cyclohexyl)pyrazolo[3,4-d]pyrimidin-3-yl]phenyl]methyl]-2-methoxy-benzamide], the IC50 at BTK^WT (setting [2]) was at most 10 nM; at BTK^C481S it was at most 10 nM; at EGFR, 100 to 1000 nM; in assay [1], 100 to 1000 nM.

As to `COc1ccccc1C(=O)NCc1ccc(-c2nn(C3CCC(C)(O)CC3)c3ncnc(N)c23)cc1` (single isomer, unassigned) [Example 92, N-[[4-[4-Amino-1-(4-hydroxy-4-methyl-cyclohexyl)pyrazolo[3,4-d]pyrimidin-3-yl]phenyl]methyl]-2-methoxy-benzamide], the IC50 on BTK^WT (setting [2]) is at most 10 nM; on BTK^C481S, at most 10 nM; on EGFR it was 100 to 1000 nM; in assay [1], 10 to 100 nM.

Turning to `COc1ccc(F)cc1C(=O)NCc1ccc(-c2nn(C3CCC(C)(O)CC3)c3ncnc(N)c23)cc1` (single isomer, unassigned) [Example 94, N-[[4-[4-Amino-1-(4-hydroxy-4-methyl-cyclohexyl)pyrazolo[3,4-d]pyrimidin-3-yl]phenyl]methyl]-5-fluoro-2-methoxy-benzamide], the IC50 was at most 10 nM on BTK^WT (setting [2]); at most 10 nM on BTK^C481S; 100 to 1000 nM at EGFR; 10 to 100 nM in assay [1] (Homo sapiens, OCI-Ly10, 72 h).

With `COc1ccccc1C(=O)NCc1ccc(-c2nn(C3CCCC3)c3ncnc(N)c23)cc1` [Example 1, N-[[4-(4-amino-1-cyclopentyl-pyrazolo[3,4-d]pyrimidin-3-yl)phenyl]methyl]-2-methoxy-benzamide], the IC50 on BTK^WT (setting [2]) is at most 10 nM; at BTK^C481S it was at most 10 nM; in assay [1] (Homo sapiens, OCI-Ly10, 72 h), 10 to 100 nM.

As for `Nc1ncnc2c1c(-c1ccc(CNC(=O)c3ccccc3F)cc1)nn2C1CCCC1` [Example 2, N-[[4-(4-amino-1-cyclopentyl-pyrazolo[3,4-d]pyrimidin-3-yl)phenyl]methyl]-2-fluoro-benzamide], the IC50 is 10 to 100 nM at EGFR and 1000 to 10000 nM in assay [1] (Homo sapiens, OCI-Ly10, 72 h).

With `COc1cc(Cl)ccc1C(=O)NCc1ccc(-c2nn(C3CCCC3)c3ncnc(N)c23)cc1` [Example 9, N-[[4-(4-amino-1-cyclopentyl-pyrazolo[3,4-d]pyrimidin-3-yl)phenyl]methyl]-4-chloro-2-methoxy-benzamide], the IC50 at EGFR is over 10000 nM; in assay [1] (Homo sapiens, OCI-Ly10, 72 h), 100 to 1000 nM.

In the case of `COc1cc(C)ccc1C(=O)NCc1ccc(-c2nn(C3CCCC3)c3ncnc(N)c23)cc1` [Example 10, N-[[4-(4-amino-1-cyclopentyl-pyrazolo[3,4-d]pyrimidin-3-yl)phenyl]methyl]-2-methoxy-4-methyl-benzamide], the IC50 at EGFR is over 10000 nM; in assay [1] (Homo sapiens, OCI-Ly10, 72 h) it was 100 to 1000 nM.

For the molecule `COc1ccc(C(F)(F)F)cc1C(=O)NCc1ccc(-c2nn(C3CCCC3)c3ncnc(N)c23)cc1` [Example 13, N-[[4-(4-amino-1-cyclopentyl-pyrazolo[3,4-d]pyrimidin-3-yl)phenyl]methyl]-2-methoxy-5-(trifluoromethyl)benzamide], the IC50 is 100 to 1000 nM on BTK^WT (setting [2]); over 10000 nM on EGFR; 100 to 1000 nM in assay [1] (Homo sapiens, OCI-Ly10, 72 h).

Regarding `COc1c(F)cccc1C(=O)NCc1ccc(-c2nn(C3CCCC3)c3ncnc(N)c23)cc1` [Example 14, N-[[4-(4-amino-1-cyclopentyl-pyrazolo[3,4-d]pyrimidin-3-yl)phenyl]methyl]-3-fluoro-2-methoxy-benzamide], the IC50 at EGFR lay within 1000 to 10000 nM; in assay [1] (Homo sapiens, OCI-Ly10, 72 h), 100 to 1000 nM.

As for `COc1cc(F)ccc1C(=O)NCc1ccc(-c2nn(C3CCCC3)c3ncnc(N)c23)cc1` [Example 15, N-[[4-(4-amino-1-cyclopentyl-pyrazolo[3,4-d]pyrimidin-3-yl)phenyl]methyl]-4-fluoro-2-methoxy-benzamide], the IC50 was in the range of 1000 to 10000 nM on EGFR and 10 to 100 nM in assay [1] (Homo sapiens, OCI-Ly10, 72 h).

In the case of `COc1cccc(F)c1C(=O)NCc1ccc(-c2nn(C3CCCC3)c3ncnc(N)c23)cc1` [Example 16, N-[[4-(4-amino-1-cyclopentyl-pyrazolo[3,4-d]pyrimidin-3-yl)phenyl]methyl]-2-fluoro-6-methoxy-benzamide], the IC50 on EGFR fell in the range of 1000 to 10000 nM; in assay [1] (Homo sapiens, OCI-Ly10, 72 h) it was 1000 to 10000 nM.

Turning to `COc1ncccc1C(=O)NCc1ccc(-c2nn(C3CCCC3)c3ncnc(N)c23)cc1` [Example 18, N-[[4-(4-amino-1-cyclopentyl-pyrazolo[3,4-d]pyrimidin-3-yl)phenyl]methyl]-2-methoxy-pyridine-3-carboxamide], the IC50 on BTK^WT (setting [2]) is 10 to 100 nM; at BTK^C481S, 10 to 100 nM; in assay [1] (Homo sapiens, OCI-Ly10, 72 h), 100 to 1000 nM.

`COc1ccccc1C(=O)NC(C)c1ccc(-c2nn(C3CCCC3)c3ncnc(N)c23)cc1` (stereo not drawn) [Example 64, N-[1-[4-(4-amino-1-cyclopentyl-pyrazolo[3,4-d]pyrimidin-3-yl)phenyl]ethyl]-2-methoxy-benzamide]: the IC50 at EGFR fell in the range of 1000 to 10000 nM; in assay [1] (Homo sapiens, OCI-Ly10, 72 h) it was 1000 to 10000 nM.

Regarding `COc1cc(-c2nn(C3CCCC3)c3ncnc(N)c23)ccc1CNC(=O)c1ccccc1OC` [Example 75, N-[[4-(4-Amino-1-cyclopentyl-pyrazolo[3,4-d]pyrimidin-3-yl)-2-methoxy-phenyl]methyl]-2-methoxy-benzamide], the IC50 on BTK^WT (setting [2]) is at most 10 nM; at BTK^C481S, at most 10 nM; in assay [1] (Homo sapiens, OCI-Ly10, 72 h), 10 to 100 nM.

As for `CC(C)c1ccccc1C(=O)NCc1ccc(-c2nn(C3CCCC3)c3ncnc(N)c23)cc1` [Example 80, N-[[4-(4-amino-1-cyclopentyl-pyrazolo[3,4-d]pyrimidin-3-yl)phenyl]methyl]-2-isopropyl-benzamide], the IC50 lay within 1000 to 10000 nM on EGFR and 1000 to 10000 nM in assay [1] (Homo sapiens, OCI-Ly10, 72 h).
